Test [1] concerns patients with mild-to-moderate AD. Briefly: Example D: twelve-item neuropsychiatric inventory (NPI-12). The test is classed as in vivo, human. How it is done: (§1) Exploratory PD effects of HTL0018318 were examined via both behavioural (Cogstate neuropsychological test battery [NTB]) tests of cognitive function and electrophysiological (electroencephalogram [EEG] and evoked response potentials [ERPs]) biomarkers. Further details of each biomarker/test and outcome variables are provided below. Twelve-item neuropsychiatric inventory (NPI-12) scores were used to evaluate neuropsychiatric symptoms.
Statistical evaluation was performed using Statistical analysis software (SAS®, SAS Institute, Cary, NC). Changes from baseline in vital signs were analysed using a mixed model for repeated measures with fixed effects for baseline, treatment, time-point and treatment by time-point interaction. The exploratory PD endpoints were analysed using an analysis of covariance with change from baseline as the dependent variable, and baseline and treatment as covariates. The least square means (LSM) for each dose (and difference from placebo) are presented with the 90% CI, P-value, and ES. ES was calculated as the LSM difference from placebo divided by the pooled standard deviation. PD data were considered clinically meaningful when P-values were <0.10 and ESs were >0.4 (ie, moderate to large ES).

Test [2] has the same test system. Put plainly: Example D: Cogstate neuropsychological test battery. The format is in vivo, human.
Source text: as §1
Exploratory pharmacodynamic endpoints (Cogstate tests and EEG/evoked response potential [ERP] biomarkers) were evaluated at screening (practice sessions) and baseline visits, and on Day 28±1. While this study was not powered to detect PD effects of small to moderate ESs, the study sample size provided approximately 80% power to detect a large ES of 0.97 for these endpoints using a significance level of 0.10.
A Cogstate neuropsychological test battery (NTB; http://www.Cogstate.com/) was administered as a computerised test, with the following cognitive tasks included in the battery. The total duration of the battery was approximately 30-40 minutes: • Identification (IDN)—reaction time (attention) • International shopping list immediate recall (ISL) and international shopping list-delayed recall (ISRL)—number of words recalled (episodic memory/verbal learning) • One back test (ONB)—accuracy and reaction time (working memory/executive function) • Groton maze learning (GML; forward and reverse maze learning)—accuracy (executive function)
The IDN is a measure of choice reaction time. In this task, an event (ie, a card turning face-up) occurs in the centre of the computer screen, and the patient must decide “YES” or “NO” as to whether or not this event meets a predefined and unchanging criterion (is the colour of the card red?). For this test, the primary dependent measure of the study was mean of the log10 transformed reaction times for correct responses.
The ISL and ISRL are a computer controlled verbal learning/episodic memory test. In this test, patients are read a list of 12 words. Each word is a concrete noun and describes an item of food that is found commonly in the culture/society in which testing is occurring. The examiner tells the patients “I am going to read to you a list of items I want you to get from the supermarket/store/market/shop”. After the 12 words have been read, the patient tries to recall as many of the words as they can immediately (ie, ISL immediate recall). Once they can recall no more words, the same list is read a second time with the words in the same order, after the same instruction. The process of reading the list and waiting for responses occurs 3 times. At the completion of the computerised battery (and with a minimum 20-minute delay) the patient is asked to recall as many of the items as they can from the shopping list (ISL delayed recall; ie, ISRL). For both ISL and ISRL tests, the primary dependent measure was number of words recalled.
The ONB memory task is a valid measure of working memory. In this task, the patient is shown a single stimulus in the centre of the computer screen (ie, a card turns face-up). He or she must decide “YES” or “NO” as to whether or not the current card matches the card that was seen on the immediately previous trial. The software measures the speed and accuracy of each response. For this test, the primary dependent measure of the study was arcsine transformation of the proportion of correct responses (i.e. accuracy).
The modified GML evaluates short-term memory. The test begins with a chase task to allow the patient to become familiar with the task context. The patient is shown a 10×10 grid of tiles on a computer touch screen. The patient is instructed to chase a moving tile around the grid. Once the patient understands the rules, he or she can proceed onto the timed chase test, where the patient must chase the target for 30 seconds. For the GML, the patient is shown the same 10×10 grid of tiles on a computer touch screen. […]

Turning to `CCOC(=O)N1C2CCC1CC(N1CCC3(CC1)CNC(=O)C3)C2` (centres unmarked) [HTL0018318, ethyl 3-(3-oxo-2,8-diazaspiro[4.5]dec-8-yl)-8-azabicyclo[3.2.1]octane-8-carboxylate], in test [1] (5 mg), the “NPI-12 total score, ES” value is given as -0.73 and the “NPI-12 total score, LSM difference from placebo” value was −1.79. For the same compound, the “NPI-12 total score, ES” value in test [1] (15 mg) is −0.54. Moreover, the “NPI-12 total score, ES” value in test [1] (25 mg) was −0.53. In test [2] (15 mg, Day 28), the “IDN attention (reaction time), ES” value is 0.62 and the “IDN attention (reaction time), LSM difference from placebo” value is 0.11. In addition, in test [2] (25 mg, Day 28), the “ISL composite (immediate and delayed recall), LSM difference from placebo” value worked out at 0.21; the “ISL composite, ES” value is reported as 0.48; the “ISL-delayed recall, ES” value turned out to be 0.49; the “ISL-delayed recall, LSM difference from placebo” value came to 0.65. Further, in test [2] (25 mg, Day 28), the “ISL-immediate recall, ES” value stood at 0.34 and the “ISL-immediate recall, LSM difference from placebo” value came out at 1.11 words. Also, in test [2] (5 and 25 mg, Day 28), the “IDN attention (reaction time)” value is “Non-significant, improvements”. For the same compound, the “ONB reaction time or accuracy, GML task (forward or reverse) performance” value in test [2] (any HTL0018318 dose) is given as “no statistically significant differences”.

The values above are taken from patent publication US20240165097A1, “PHARMACEUTICAL COMPOSITION FOR THE TREATMENT OF ALZHEIMER'S DISEASE OR DEMENTIA” (Heptares Therapeutics Limited, priority 2021, published 2024).
